Measurements: patent US8057783B2, “Method of injecting liquid agents at acupuncture points to arrive internal organs and method of visualizing arrival of liquid agents” (Seoul National University Industry Foundation, priority 2007, dated 2011)

Test: Injection of alcian blue solution at the lowest electric resistance point near Jung-Wan, arrival at pancreas observed by stereoscopic microscope
Format: in vivo
Details: hairless mouse, subcutaneous tissue near Jung-Wan, 0.1 μl a minute for 2 to 3 hours
Protocol: For laboratory animals, the hairless mouse (males, about 6 weeks old) supplied from the JungAng Laboratory Animal Company were used. The laboratory animals were managed in a breeding cage with temperature of 23° C. and 60% relative humidity under 12 hour light/dark cycles and supplied with food and water for ad libitum access.
The hairless mouse living in the above environment was anaesthetized by administering 1.5 g/kg of urethane, and all of the surgical procedures were performed under anesthesia. The hairless mouse under anesthesia were placed on the operating table under the stereoscopic microscope (Olympus SZX12) connected with the computer and the CCD camera.
Jung-Wan was determined at the middle of the umbilicus and the xiphoid process-sternum junction (JungJeong, one of acupuncture points) along the linea alba of the hairless mouse according to “GolDo method”, which is a method of finding acupuncture points by using its unique measuring units. After Jung-Wan was determined, the point having the lowest electric resistance was found within a radius of 2 mm from Jung-Wan by using the electro acupuncture point detector (Hamtech Korea Co., YNS202-S) and determined as the point into which an alcian blue solution would be injected. […]

With alcian blue [alcian blue solution] the “distribution of the visualizing material in internal organs after injection” value was “dispersed into the threadlike structures penetrating out through the surface of the pancreas”.
